Measured values published in US20240368131A1, “OXOINDOLINYL AMIDE DERIVATIVES FOR INHIBITING NLRP3 AND USES THEREOF” (VENTUS THERAPEUTICS U.S. INC., priority 2022, published 2024).

Experiments:
human NLRP3 [1] = target: T1, human NLRP3 (Homo sapiens, UniProt Q96P20); assay: Human PBMC NLRP3 Assay (IL-1β release); assay type: cell-based; parameters: Human PBMCs (Normal): iXCells Cat #10HU-003; host or cells: human PBMCs (normal donors), LPS-primed, nigericin-stimulated; settings: human PBMCs
Experimental: Reagents: Human PBMCs (Normal): iXCells Cat #10HU-003; RPMI 1640 medium (ATCC modification): ThermoFisher Cat #A1049101 (Complete Media: 10% FBS, 1% Pen/Strep; Assay Media: 1% Pen/Strep; 75 cm^2 cell culture flask: Corning Cat #430641U; 96-well cell culture plates: VWR Cat #10062-900; LPS (E. coli 026:B6): Sigma Cat #L2654, stock 5 mg/mL in PBS; Nigericin sodium salt: Sigma Cat #N7143, stock 5 mg/mL (6.7 mM) in ethanol.
Cryopreserved PBMCs (10×10^6 cells/vial) were rapidly thawed in a 37° C. water bath for 2 min and transferred in 10 mL Complete Media. Cells were then centrifuged at 1200 RPM for 5 min, resuspended in 40 mL of Complete Media, transferred in a 75 cm^2 cell culture flask and incubated overnight at 37° C. with 5% CO2. The next day, PBMCs were centrifuged, resuspended in 30 mL Assay Media (˜3.3×10^5 cells/mL) and distributed at 100 μL/well in a 96-well cell culture plate. 50 μl of Assay Media containing 300 ng/ml of LPS was then added to each well except for the untreated control wells (50 μl Assay Media without LPS). Cells were then primed with LPS for 4 h at 37° C. with 5% CO2. A concentration response curve (CRC) was prepared of 500× test compound in 100% dimethyl sulfoxide (DMSO). The CRC was then diluted 1:25 in Assay Media and then further diluted 1:5 in Assay Media resulting in a final 4× CRC in 0.8% DMSO/Assay Media. 50 μL/well of 4× test compound CRC or vehicle (0.8% DMSO/Assay Media) was then transferred into each well and subsequently incubated for 30 min at 37° C. with 5% CO2. Cells were stimulated by adding 4 μL of 500 μM Nigericin, for 1 h at 37° C. with 5% CO2 Plates were then centrifuged at 1200 RPM for 5 min and 100 μl of the media was transferred to a clean 96-well storage plate and stored at −80° C. until analyzed. Cytokine measurements were performed using the mesoscale platform. Compounds were added 30 minutes before priming the cells with LPS when TNFα was required to be quantified in the cytokine panel to confirm selectivity.
Human PBMC NLRP3 Assay: A represents an IC50 value <0.3 μM; B represents an IC50 value ≥0.3 μM and <0.5 μM; C represents an IC50 value ≥0.5 μM and <1.0 μM; D represents an IC50 value >1.0 μM and <10 μM; E represents an IC50 value >10 μM.

human NLRP3 [2] = target: T1, human NLRP3; assay: Human Whole Blood (hWB) NLRP3 Assay (IL-1β MSD); assay type: cell-based; settings: LPS 1 μg/ml 4.5 h, ATP 30 min, class symbols
Experimental: Human whole blood was drawn from healthy volunteers after obtaining written informed consent. Heparin lithium coated tubes were used to collect blood from volunteers. Blood samples were distributed on 96 well plates using 90 μl per well. Priming was performed by adding 5 μl of LPS (O26:B6; Sigma L-2654) at a final concentration of 1 μg/ml for 4.5 hours in a humidified incubator with 37° C., 5% CO2. Thirty minutes prior to NLRP3 activation, 5 μl of a 20× compound solution or vehicle (2% DMSO) was added to each well and plates were incubated on a shaker (450 rpm) in a humidified incubator with 37° C., 5% CO2. Activation was then performed by adding 3.3 μl of a 31× ATP solution per well. At the end of the 30 minutes stimulation, the plates were centrifuged (800 g, 10 min, room temperature) and the plasma from each well was frozen at −80° C. IL-1β levels in the supernatant were analyzed using a mesoscale discovery assay (MSD K151TUK) according to the manufacturers' instructions.
hWB IL-1β Assay: A represents an IC50 value <0.3 μM; B represents an IC50 value ≥0.3 μM and <0.5 μM; C represents an IC50 value ≥0.5 μM and <1.0 μM; D represents an IC50 value >1.0 μM.

[3] = LPS priming 4 h, nigericin stimulation 1 h, class symbols
[4] = LPS priming, nigericin stimulation, numeric values of Tables C1-C4

T1 sequence (Q96P20 whole entry): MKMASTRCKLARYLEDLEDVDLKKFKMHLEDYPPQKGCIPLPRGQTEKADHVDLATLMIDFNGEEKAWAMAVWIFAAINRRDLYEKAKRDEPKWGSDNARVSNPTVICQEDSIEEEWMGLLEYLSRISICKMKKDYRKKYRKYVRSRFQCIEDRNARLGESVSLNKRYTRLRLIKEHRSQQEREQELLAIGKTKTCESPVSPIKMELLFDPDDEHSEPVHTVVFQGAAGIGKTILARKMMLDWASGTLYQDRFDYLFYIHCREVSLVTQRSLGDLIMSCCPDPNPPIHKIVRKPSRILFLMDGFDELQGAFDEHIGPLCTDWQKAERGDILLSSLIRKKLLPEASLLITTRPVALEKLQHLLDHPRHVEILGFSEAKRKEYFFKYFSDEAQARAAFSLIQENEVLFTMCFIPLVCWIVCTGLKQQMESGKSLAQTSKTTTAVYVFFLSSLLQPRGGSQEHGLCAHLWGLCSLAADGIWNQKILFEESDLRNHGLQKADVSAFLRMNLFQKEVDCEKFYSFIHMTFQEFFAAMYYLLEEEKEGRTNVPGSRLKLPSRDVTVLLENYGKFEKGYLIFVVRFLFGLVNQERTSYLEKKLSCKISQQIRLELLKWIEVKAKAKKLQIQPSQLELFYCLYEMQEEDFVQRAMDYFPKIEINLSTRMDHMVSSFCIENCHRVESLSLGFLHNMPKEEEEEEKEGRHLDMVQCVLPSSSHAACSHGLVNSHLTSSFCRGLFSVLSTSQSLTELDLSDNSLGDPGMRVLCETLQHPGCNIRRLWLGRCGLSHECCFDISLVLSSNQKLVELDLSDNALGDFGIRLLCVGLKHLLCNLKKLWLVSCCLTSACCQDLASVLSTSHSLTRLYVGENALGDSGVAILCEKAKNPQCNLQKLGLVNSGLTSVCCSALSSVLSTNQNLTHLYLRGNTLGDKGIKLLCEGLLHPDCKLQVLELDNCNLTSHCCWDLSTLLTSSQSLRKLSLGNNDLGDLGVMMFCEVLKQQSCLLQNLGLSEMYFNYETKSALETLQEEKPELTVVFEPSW

## C[C@H](CCC(=O)O)NC(=O)CN1C(=O)C(C)(C)c2cc(Br)cc(O)c21 [Compound 41A, (R)-4-(2-(5-bromo-7-hydroxy-3,3-dimethyl-2-oxoindolin-1-yl)acetamido)pentanoic acid]
Human NLRP3 [1]; [3]
  IC50: < 0.3 µM

## CC1(C)C(=O)N(CC(=O)NC2(CCC(=O)O)CC2)c2c(O)cc(Br)cc21 [Compound 44, 3-(1-(2-(5-bromo-7-hydroxy-3,3-dimethyl-2-oxoindolin-1-yl)acetamido)cyclopropyl)propanoic acid]
Human NLRP3 [1]; [3]
  IC50: < 0.3 µM

## O=C(O)CCNC(=O)Cn1ccc2cc(Br)ccc21 [COMPARATIVE EXAMPLE 5, 3-(2-(5-bromo-1H-indol-1-yl)acetamido)propanoic acid, reference compound]
Human NLRP3 [1]; [4]
  IC50: > 100 µM

## CC1(C)C(=O)N(CC(=O)NCCCc2cn[nH]n2)c2c(F)cc(C3CC3)c(F)c21 [COMPARATIVE EXAMPLE 7, N-(3-(2H-1,2,3-triazol-4-yl)propyl)-2-(5-cyclopropyl-4,7-difluoro-3,3-dimethyl-2-oxoindolin-1-yl)acetamide, reference compound]
Human NLRP3 [1]; [4]
  IC50: 0.676 µM

## CC1(C)C(=O)N(CC(=O)NCCCC(=O)O)c2ccc(C3CCCC3)cc21 [Compound 25, 4-(2-(5-cyclopentyl-3,3-dimethyl-2-oxoindolin-1-yl)acetamido)butanoic acid]
Human NLRP3 [1]; [3]
  IC50: > 10 µM

## C[C@@H](CNC(=O)CN1C(=O)C(C)(C)c2cc(Br)cc(O)c21)CC(=O)O (single isomer, unassigned) [42A*]
Human NLRP3 [1]; [3]
  IC50: < 0.3 µM

## C[C@H](CC(=O)O)[C@@H](C)NC(=O)CN1C(=O)C(C)(C)c2c(F)c(C(F)(F)F)cc(F)c21 (single isomer, unassigned) [67D*]
Human NLRP3 [2]
  IC50: 0.3 to 0.5 µM

## CC1(C)C(=O)N(CC(=O)NCCCC(=O)O)c2c(O)cc(Cl)cc21 [Compound 47, 4-(2-(5-chloro-7-hydroxy-3,3-dimethyl-2-oxoindolin-1-yl)acetamido)butanoic acid]
Human NLRP3 [2]
  IC50: 0.3 to 0.5 µM

## O=C(O)CCCNC(=O)Cn1ccc2ccccc21 [COMPARATIVE EXAMPLE 1, 4-(2-(1H-indol-1-yl)acetamido)butanoic acid, reference compound]
Human NLRP3 [1]; [4]
  IC50: > 100 µM

## CC1(C)C(=O)N(CC(=O)NCCCc2nnc[nH]2)c2c(F)cc(C3CC3)c(F)c21 [COMPARATIVE EXAMPLE 6, N-(3-(4H-1,2,4-triazol-3-yl)propyl)-2-(5-cyclopropyl-4,7-difluoro-3,3-dimethyl-2-oxoindolin-1-yl)acetamide, reference compound]
Human NLRP3 [1]; [4]
  IC50: 0.941 µM

## O=C(O)CCCNC(=O)CN1C(=O)C(F)(F)c2cc(Br)ccc21 [Compound 51, 4-(2-(5-bromo-3,3-difluoro-2-oxoindolin-1-yl)acetamido)butanoic acid]
Human NLRP3 [1]; [3]
  IC50: 0.3 to 0.5 µM
Human NLRP3 [1]; [4]
  IC50: 0.41 µM

## CC1(C)C(=O)N(CC(=O)N[C@@H]2CCC[C@@H]2C(=O)O)c2ccc(Br)cc21 (single isomer, unassigned) [52A*]
Human NLRP3 [1]; [3]
  IC50: > 10 µM

## Cc1ccc2c(c1)C(C)(C)C(=O)N2CC(=O)NCCCC(=O)O [Compound 7, 4-(2-(3,3,5-trimethyl-2-oxoindolin-1-yl)acetamido)butanoic acid]
Human NLRP3 [1]; [3]
  IC50: 1 to 10 µM

## O=C(O)CCCNC(=O)CN1C(=O)C2(CC2)c2cc(Br)ccc21 [Compound 6, 4-(2-(5′-bromo-2′-oxospiro[cyclopropane-1,3′-indolin]-1′-yl)acetamido)butanoic acid]
Human NLRP3 [1]; [3]
  IC50: 0.5 to 1 µM
Human NLRP3 [1]; [4]
  IC50: 0.57 µM

## O=C(O)CCCNC(=O)CN1C(=O)C2(CCCC2)c2cc(Br)ccc21 [Compound 5, 4-(2-(5′-bromo-2′-oxospiro[cyclopentane-1,3′-indolin]-1′-yl)acetamido)butanoic acid]
Human NLRP3 [1]; [3]
  IC50: > 10 µM

## O=C(O)CCCNC(=O)Cn1ccc2cc(Br)ccc21 [COMPARATIVE EXAMPLE 2, 4-(2-(5-bromo-1H-indol-1-yl)acetamido)butanoic acid, reference compound]
Human NLRP3 [1]; [4]
  IC50: 7.2 µM

## CC1(C)C(=O)N(CC(=O)NCCCC(=O)O)c2c(C(F)(F)F)cc(Br)cc21 [Compound 50, 4-(2-(5-bromo-3,3-dimethyl-2-oxo-7-(trifluoromethyl)indolin-1-yl)acetamido)butanoic acid]
Human NLRP3 [1]; [3]
  IC50: > 10 µM

## CC(C)(CNC(=O)CN1C(=O)C(C)(C)c2cc(Br)ccc21)CC(=O)O [Compound 13, 4-(2-(5-bromo-3,3-dimethyl-2-oxoindolin-1-yl)acetamido)-3,3-dimethylbutanoic acid]
Human NLRP3 [1]; [3]
  IC50: < 0.3 µM
Human NLRP3 [1]; [4]
  IC50: 0.11 µM

## O=C(O)CCCNC(=O)CN1C(=O)Cc2cc(Br)ccc21 [COMPARATIVE EXAMPLE 3, 4-(2-(5-bromo-2-oxoindolin-1-yl)acetamido)butanoic acid, reference compound]
Human NLRP3 [1]; [4]
  IC50: 47 µM

## CC1(C)C(=O)N(CC(=O)NCc2ccccc2C(=O)O)c2ccc(Br)cc21 [Compound 49, 2-((2-(5-bromo-3,3-dimethyl-2-oxoindolin-1-yl)acetamido)methyl)benzoic acid]
Human NLRP3 [1]; [3]
  IC50: > 10 µM

## CC(C)(CCC(=O)O)NC(=O)CN1C(=O)C(C)(C)c2cc(C(F)(F)F)ccc21 [Compound 8, 4-(2-(3,3-dimethyl-2-oxo-5-(trifluoromethyl)indolin-1-yl)acetamido)-4-methylpentanoic acid]
Human NLRP3 [1]; [3]
  IC50: 0.5 to 1 µM
Human NLRP3 [1]; [4]
  IC50: 0.69 µM

## CC1(C)C(=O)N(C2(C(=O)NCCCC(=O)O)CC2)c2ccc(Br)cc21 [Compound 15, 4-(1-(5-bromo-3,3-dimethyl-2-oxoindolin-1-yl)cyclopropane-1-carboxamido)butanoic acid]
Human NLRP3 [1]; [3]
  IC50: > 10 µM

## CC(C)(CCC(=O)O)NC(=O)CN1C(=O)C(C)(C)c2cc(C3CC3)ccc21 [Compound 9, 4-(2-(5-cyclopropyl-3,3-dimethyl-2-oxoindolin-1-yl)acetamido)-4-methylpentanoic acid]
Human NLRP3 [1]; [3]
  IC50: 0.5 to 1 µM
Human NLRP3 [1]; [4]
  IC50: 0.67 µM

## O=C(O)CCCNC(=O)CN1C(=O)C(=O)c2cc(Br)ccc21 [COMPARATIVE EXAMPLE 4, 4-(2-(5-bromo-2,3-dioxoindolin-1-yl)acetamido)butanoic acid, reference compound]
Human NLRP3 [1]; [4]
  IC50: > 100 µM

## CC(C)(CCNC(=O)CN1C(=O)C(C)(C)c2cc(Br)ccc21)C(=O)O [Compound 14, 4-(2-(5-bromo-3,3-dimethyl-2-oxoindolin-1-yl)acetamido)-2,2-dimethylbutanoic acid]
Human NLRP3 [1]; [3]
  IC50: 1 to 10 µM

## CC(C)c1ccc2c(c1)C(C)(C)C(=O)N2CC(=O)NC(C)(C)CCC(=O)O [Compound 10, 4-(2-(5-isopropyl-3,3-dimethyl-2-oxoindolin-1-yl)acetamido)-4-methylpentanoic acid]
Human NLRP3 [1]; [3]
  IC50: 0.3 to 0.5 µM

## CC1(C)C(=O)N(CC(=O)NCCCC(=O)O)c2cc(O)c(Br)cc21 [Compound 36, 4-(2-(5-bromo-6-hydroxy-3,3-dimethyl-2-oxoindolin-1-yl)acetamido)butanoic acid]
Human NLRP3 [1]; [3]
  IC50: > 10 µM

## COc1cc(Br)cc2c1N(CC(=O)NCCCC(=O)O)C(=O)C2(C)C [Compound 27, 4-(2-(5-bromo-7-methoxy-3,3-dimethyl-2-oxoindolin-1-yl)acetamido)butanoic acid]
Human NLRP3 [1]; [3]
  IC50: > 10 µM

## CC1(C)C(=O)N(CC(=O)NCCCC(=O)O)c2cc(F)c(Br)cc21 [Compound 20, 4-(2-(5-bromo-6-fluoro-3,3-dimethyl-2-oxoindolin-1-yl)acetamido)butanoic acid]
Human NLRP3 [1]; [3]
  IC50: 1 to 10 µM

## C[C@H](CNC(=O)CN1C(=O)C(C)(C)c2cc(Br)cc(O)c21)CC(=O)O (single isomer, unassigned) [42B*]
Human NLRP3 [1]; [3]
  IC50: < 0.3 µM
